Measurements reported in patent US11203600B2 (Denali Therapeutics Inc., priority 2017, dated 2021).

Target: GST-hRIPK1 (8-327) (Homo sapiens (Human), UniProt Q13546)
Assay: Fluorescent Polarization Binding (FP Binding) assay, RIPK1
Conditions: 10 nM GST-hRIPK1 (8-327), 5 nM fluorescent-labeled ligand, RT, 30 min, mean of at least two independent experiments
In short: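 Compound displacement of 5 nM labelled ligand from 10 nM GST-hRIPK1 (8-327) was read as FP (531/595 nm) after 30 min at RT. Buffer: HEPES pH 7.5, NaCl, MgCl2, CHAPS, DTT, Pluronic; 1% DMSO final. IC50s were averaged over at least two independent runs.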

Sequence of GST-hRIPK1 (8-327) (Q13546 8-327): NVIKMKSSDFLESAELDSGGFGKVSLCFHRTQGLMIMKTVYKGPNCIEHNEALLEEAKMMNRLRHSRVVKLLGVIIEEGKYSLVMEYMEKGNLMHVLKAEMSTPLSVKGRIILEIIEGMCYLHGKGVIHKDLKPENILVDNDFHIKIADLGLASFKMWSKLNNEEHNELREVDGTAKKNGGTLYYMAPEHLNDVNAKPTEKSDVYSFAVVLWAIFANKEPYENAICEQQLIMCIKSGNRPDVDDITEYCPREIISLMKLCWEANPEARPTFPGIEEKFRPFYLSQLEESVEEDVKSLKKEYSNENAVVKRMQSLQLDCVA

First: CN(C)CCCOc1nc(N2CCC(F)(C(=O)N3CCOc4c(C#N)cncc4C3)CC2)ncc1F [Example 127, 4-[1-[4-[3-(dimethylamino)propoxy]-5-fluoro-pyrimidin-2-yl]-4-fluoro-piperidine-4-carbonyl]-3,5-dihydro-2H-pyrido[3,4-f][1,4]oxazepine-9-carbonitrile]
Second: COc1nc(N2CCC(F)(C(=O)N3CCOc4c(C#N)cncc4C3)CC2)ncc1Cl [Example 128, 4-[1-(5-chloro-4-methoxy-pyrimidin-2-yl)-4-fluoro-piperidine-4-carbonyl]-3,5-dihydro-2H-pyrido[3,4-f][1,4]oxazepine-9-carbonitrile]
The IC50 of the first is higher: 100 to 1000 nM for the first, 0.1 to 100 nM for the second. The second is the more potent here.

`COc1nc(N2CCC(C(=O)N3CCOc4c(C#N)cncc4C3)CC2)ncc1Cl` [Example 129, 4-[1-(5-chloro-4-methoxy-pyrimidin-2-yl)piperidine-4-carbonyl]-3,5-dihydro-2H-pyrido[3,4-f][1,4]oxazepine-9-carbonitrile] and `N#Cc1cncc2c1OCCN(C(=O)C1CCN(c3ncc(F)c(OCC(F)F)n3)CC1)C2` [Example 131, 4-(1-(4-(2,2-difluoroethoxy)-5-fluoropyrimidin-2-yl)piperidine-4-carbonyl)-2,3,4,5-tetrahydropyrido[3,4-f][1,4]oxazepine-9-carbonitrile] fall in the same range of IC50: 0.1 to 100 nM for the first, 0.1 to 100 nM for the second.

`COCCOc1nc(N2CCC(C(=O)N3CCOc4c(F)cncc4C3)CC2)ncc1F` [Example 130, (9-fluoro-3,5-dihydro-2H-pyrido[3,4-f][1,4]oxazepin-4-yl)-[1-[5-fluoro-4-(2-methoxyethoxy)pyrimidin-2-yl]-4-piperidyl]methanone] and `O=C(C1CCN(c2ncc(F)cn2)CC1)N1CCOc2c(F)cncc2C1` [Example 156, (9-fluoro-3,5-dihydro-2H-pyrido[3,4-f][1,4]oxazepin-4-yl)-[1-(5-fluoropyrimidin-2-yl)-4-piperidyl]methanone] fall in the same range of IC50: 0.1 to 100 nM for the first, 0.1 to 100 nM for the second.

First: COC1(C(=O)N2CCOc3c(F)cncc3C2)CCN(c2ncc(F)c(OCC(F)F)n2)CC1 [Example 132, (1-(4-(2,2-difluoroethoxy)-5-fluoropyrimidin-2-yl)-4-methoxypiperidin-4-yl)(9-fluoro-2,3-dihydropyrido[3,4-f][1,4]oxazepin-4(5H)-yl)methanone]
Second: COC1(C(=O)N2CCOc3c(F)cncc3C2)CCN(c2nccc(OCC(F)F)n2)CC1 [Example 134, [1-[4-(2,2-difluoroethoxy)pyrimidin-2-yl]-4-methoxy-4-piperidyl]-(9-fluoro-3,5-dihydro-2H-pyrido[3,4-f][1,4]oxazepin-4-yl)methanone]
The IC50 of the first is lower: 0.1 to 100 nM for the first, 100 to 1000 nM for the second. The first is the more potent here.

First: N#Cc1cncc2c1OCCN(C(=O)C1CCN(c3nccc(OCC(F)F)n3)CC1)C2 [Example 133, 4-[1-[4-(2,2-difluoroethoxy)pyrimidin-2-yl]piperidine-4-carbonyl]-3,5-dihydro-2H-pyrido[3,4-f][1,4]oxazepine-9-carbonitrile]
Second: N#Cc1cncc2c1OCCN(C(=O)C1CCN(c3ncc(F)cn3)CC1)C2 [Example 155, 4-[1-(5-fluoropyrimidin-2-yl)piperidine-4-carbonyl]-3,5-dihydro-2H-pyrido[3,4-f][1,4]oxazepine-9-carbonitrile]
The IC50 of the first is higher: 100 to 1000 nM for the first, 0.1 to 100 nM for the second. The second is the more potent here.

`COC1(C(=O)N2CCOc3c(F)cncc3C2)CCN(c2ncccn2)CC1` [Example 135, (9-fluoro-3,5-dihydro-2H-pyrido[3,4-f][1,4]oxazepin-4-yl)-(4-methoxy-1-pyrimidin-2-yl-4-piperidyl)methanone] and `N#Cc1cncc2c1OCCN(C(=O)C1(F)CCN(c3ncccn3)CC1)C2` [Example 157, 4-(4-fluoro-1-pyrimidin-2-yl-piperidine-4-carbonyl)-3,5-dihydro-2H-pyrido[3,4-f][1,4]oxazepine-9-carbonitrile] fall in the same range of IC50: 0.1 to 100 nM for the first, 0.1 to 100 nM for the second.

First: COC1(C(=O)N2CCOc3c(F)cncc3C2)CCN(c2ncc(F)c(OCCN(C)C)n2)CC1 [Example 136]
Second: N#Cc1cnc(N2CCC(F)(C(=O)N3CCOc4c(F)cncc4C3)CC2)nc1 [Example 159, 2-[4-fluoro-4-(9-fluoro-3,5-dihydro-2H-pyrido[3,4-f][1,4]oxazepine-4-carbonyl)-1-piperidyl]pyrimidine-5-carbonitrile]
The IC50 of the first is higher: greater than 1000 nM for the first, 100 to 1000 nM for the second. The second is the more potent here.

First: N#Cc1cncc2c1OCCN(C(=O)C1(CF)CCN(c3ncc(F)cn3)CC1)C2 [Example 137, 4-(4-(fluoromethyl)-1-(5-fluoropyrimidin-2-yl)piperidine-4-carbonyl)-2,3,4,5-tetrahydropyrido[3,4-f][1,4]oxazepine-9-carbonitrile]
Second: N#Cc1cncc2c1OCCN(C(=O)C1(F)CCN(c3ncc(F)cn3)CC1)C2 [Example 161, 4-[4-fluoro-1-(5-fluoropyrimidin-2-yl)piperidine-4-carbonyl]-3,5-dihydro-2H-pyrido[3,4-f][1,4]oxazepine-9-carbonitrile]
The IC50 of the first is higher: 100 to 1000 nM for the first, 0.1 to 100 nM for the second.

First: CC1(C(=O)N2CCOc3c(C#N)cncc3C2)CC(F)(F)C1 [Example 138, 4-(3,3-difluoro-1-methyl-cyclobutanecarbonyl)-3,5-dihydro-2H-pyrido[3,4-f][1,4]oxazepine-9-carbonitrile]
Second: N#Cc1cncc2c1OCCN(C(=O)C1(F)CC1)C2 [Example 140, 4-(1-fluorocyclopropanecarbonyl)-3,5-dihydro-2H-pyrido[3,4-f][1,4]oxazepine-9-carbonitrile]
The IC50 of the first is lower: 100 to 1000 nM for the first, greater than 1000 nM for the second.

First: N#Cc1cncc2c1OCCN(C(=O)C1(C(F)F)CC1)C2 [Example 139, 4-[1-(difluoromethyl)cyclopropanecarbonyl)-3,5-dihydro-2H-pyrido[3,4-f][1,4]oxazepine-9-carbonitrile]
Second: CC(C)(CC(F)F)C(=O)N1CCOc2c(C#N)cncc2C1 [Example 149, 4-(4,4-difluoro-2,2-dimethyl-butanoyl)-3,5-dihydro-2H-pyrido[3,4-f][1,4]oxazepine-9-carbonitrile]
The IC50 of the first is higher: greater than 1000 nM for the first, 100 to 1000 nM for the second.

`CC(CC(F)(F)F)C(=O)N1CCOc2c(C#N)cncc2C1` (stereo not drawn) [Example 141, 4-(4,4,4-trifluoro-2-methyl-butanoyl)-3,5-dihydro-2H-pyrido[3,4-f][1,4]oxazepine-9-carbonitrile] and `CC(C(=O)N1CCOc2c(C#N)cncc2C1)C1CC1` (stereo not drawn) [Example 146, 4-(2-cyclopropylpropanoyl)-3,5-dihydro-2H-pyrido[3,4-f][1,4]oxazepine-9-carbonitrile] fall in the same range of IC50: 100 to 1000 nM for the first, 100 to 1000 nM for the second.

`CC(F)(F)C(C)(C)C(=O)N1CCOc2c(C#N)cncc2C1` [Example 142, 4-(3,3-difluoro-2,2-dimethyl-butanoyl)-3,5-dihydro-2H-pyrido[3,4-f][1,4]oxazepine-9-carbonitrile] and `CC(C)(Cl)C(=O)N1CCOc2c(C#N)cncc2C1` [Example 158, 4-(2-chloro-2-methyl-propanoyl)-3,5-dihydro-2H-pyrido[3,4-f][1,4]oxazepine-9-carbonitrile] fall in the same range of IC50: 0.1 to 100 nM for the first, 0.1 to 100 nM for the second.

First: N#Cc1cncc2c1OCCN(C(=O)C(F)(F)C(F)(F)C(F)(F)F)C2 [Example 143, 4-(2,2,3,3,4,4,4,-heptafluorobutanoyl)-3,5-dihydro-2H-pyrido[3,4-f][1,4]oxazepine-9-carbonitrile]
Second: CC(C(=O)N1CCOc2c(C#N)cncc2C1)(C(F)(F)F)C(F)(F)F [Example 152, 4-[3,3,3-trifluoro-2-methyl-2-(trifluoromethyl)propanoyl]-3,5-dihydro-2H-pyrido[3,4-f][1,4]oxazepine-9-carbonitrile]
The IC50 of the first is higher: greater than 1000 nM for the first, 100 to 1000 nM for the second.

First: CC(C)(CF)C(=O)N1CCOc2c(C#N)cncc2C1 [Example 144, 4-(3-fluoro-2,2-dimethyl-propanoyl)-3,5-dihydro-2H-pyrido[3,4-f][1,4]oxazepine-9-carbonitrile]
Second: COCC(C)(C)C(=O)N1CCOc2c(C#N)cncc2C1 [Example 150, 4-(3-methoxy-2,2-dimethyl-propanoyl)-3,5-dihydro-2H-pyrido[3,4-f][1,4]oxazepine-9-carbonitrile]
The IC50 of the first is lower: 0.1 to 100 nM for the first, 100 to 1000 nM for the second.

`CC(C)C(C)(C)C(=O)N1CCOc2c(C#N)cncc2C1` [Example 145, 4-(2,2,3-trimethylbutanoyl)-3,5-dihydro-2H-pyrido[3,4-f][1,4]oxazepine-9-carbonitrile] and `CSC(C)(C)C(=O)N1CCOc2c(C#N)cncc2C1` [Example 148, 4-(2-methyl-2-methylsulfanyl-propanoyl)-3,5-dihydro-2H-pyrido[3,4-f][1,4]oxazepine-9-carbonitrile] fall in the same range of IC50: 0.1 to 100 nM for the first, 0.1 to 100 nM for the second.

`CC(CF)(CF)C(=O)N1CCOc2c(C#N)cncc2C1` [Example 147, 4-[3-fluoro-2-(fluoromethyl)-2-methyl-propanoyl]-3,5-dihydro-2H-pyrido[3,4-f][1,4]oxazepine-9-carbonitrile] and `CCC(C)(CC)C(=O)N1CCOc2c(C#N)cncc2C1` [Example 151, 4-(2-ethyl-2-methyl-butanoyl)-3,5-dihydro-2H-pyrido[3,4-f][1,4]oxazepine-9-carbonitrile] fall in the same range of IC50: 0.1 to 100 nM for the first, 0.1 to 100 nM for the second.

First: CCC(C)(OC)C(=O)N1CCOc2c(C#N)cncc2C1 (stereo not drawn) [Example 153, 4-(2-methoxy-2-methyl-butanoyl)-3,5-dihydro-2H-pyrido[3,4-f][1,4]oxazepine-9-carbonitrile]
Second: COC(C)(C(=O)N1CCOc2c(C#N)cncc2C1)C1CC1 (stereo not drawn) [Example 154, 4-(2-cyclopropyl-2-methoxy-propanoyl)-3,5-dihydro-2H-pyrido[3,4-f][1,4]oxazepine-9-carbonitrile]
The IC50 of the first is lower: 0.1 to 100 nM for the first, 100 to 1000 nM for the second.

`N#Cc1ccnc(N2CCC(F)(C(=O)N3CCOc4c(F)cncc4C3)CC2)n1` [Example 160, 2-[4-fluoro-4-(9-fluoro-3,5-dihydro-2H-pyrido[3,4-f][1,4]oxazepine-4-carbonyl)-1-piperidyl]pyrimidine-4-carbonitrile] and `Cc1ccnc(N2CCC(F)(C(=O)N3CCOc4c(C#N)cncc4C3)CC2)n1` [Example 162, 4-[4-fluoro-1-(4-methylpyrimidin-2-yl)piperidine-4-carbonyl]-3,5-dihydro-2H-pyrido[3,4-f][1,4]oxazepine-9-carbonitrile] fall in the same range of IC50: 100 to 1000 nM for the first, 100 to 1000 nM for the second.
